Assay results from US11419335B2, “N-arylated analogues and uses thereof” (University of Florida Research Foundation, Incorporated, priority 2016, dated 2022).
Like-named read-outs stand apart in the source and are kept apart here. Marks after values point to notes of the source that are not given here.

How the values were obtained:
[1] = tested on: SA-156 (clinical isolate); experiment: MIC broth microdilution, SA-156; assay type: cell-based, Staphylococcus aureus
Procedure: (§1) The minimum inhibitory concentration (MIC) for each tested compound was determined by the broth microdilution method as recommended by the Clinical and Laboratory Standards Institute (CLSI). In a 96-well plate, eleven two-fold serial dilutions of each compound were made in a final volume of 100 μL Luria Broth. Each well was inoculated with ˜10^5 bacterial cells at the initial time of incubation, prepared from a fresh log phase culture (OD600 of 0.5 to 1.0 depending on bacterial strain). […] (MIC values were supported by spectrophotometric readings at OD600). DMSO served as our vehicle and negative control in each microdilution MIC assay. DMSO was serially diluted with a top concentration of 1% v/v.
(§2) Each well was inoculated with ˜10^5 bacterial cells at the initial time of incubation, prepared from a fresh log phase culture (OD600 of 0.5 to 1.0 depending on bacterial strain). […] The concentration range tested for each compound during this study was 0.10 to 100 μM. DMSO served as our vehicle and negative control in each microdilution MIC assay. DMSO was serially diluted with a top concentration of 1% v/v. All MIC values were obtained from a minimum of three independent experiments.

[2] = tested on: Acinetobacter baumannii (ATCC 1794); experiment: MIC broth microdilution, A. baumannii 1794; assay type: cell-based; settings: for MIC A. baumannii 1794: Table 1A, in µM; for MIC A. bau. 1794: Table 4
In short: (§3)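 Values are lowest no-growth concentrations after 16–18 h at 37° C in Luria Broth, inoculum ~10^5 log-phase cells, eleven two-fold dilutions spanning 0.10–100 μM, OD600 used to confirm. DMSO, top 1% v/v, served as vehicle and negative control.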

[3] = tested on: methicillin-resistant Staphylococcus epidermidis (MRSE strain ATCC 35984); experiment: MIC broth microdilution, MRSE 35984; assay type: cell-based; settings: for MIC S. epidermidis MRSE 35984: Table 1A
In short: as §3

[4] = tested on: SA-129 (clinical isolate); experiment: MIC broth microdilution, SA-129; assay type: cell-based, Staphylococcus aureus
Procedure: as §1, §2

MRSA BAA-1707 = experiment: MIC broth microdilution, MRSA BAA-1707; assay type: cell-based, Staphylococcus aureus; settings: for MIC MRSA 1707: Table 4
In short: (§4)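 Serial two-fold dilutions (0.10–100 μM) in LB, CLSI broth microdilution format. Inoculum: ~10^5 log-phase cells per well.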

[5] = tested on: human red blood cells (hRBC); experiment: Hemolysis of red blood cells; assay type: cell-based; settings: for RBC HC50: Table 4, concentration required to lyse 50% of red blood cells
In short: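 hRBCs (2% suspension) exposed to compounds at 0.2–200 μM (ten-point dose-response) for 1 h at 37 °C; after centrifugation, haemoglobin release read as supernatant OD at 405 nm. DMSO set as 0% and Triton X as 100% haemolysis; HC50 from dose-response curves, three independent experiments.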

[6] = tested on: SA-138 (clinical isolate); experiment: MIC broth microdilution, SA-138; assay type: cell-based, Staphylococcus aureus
Procedure: as §1, §2

[7] = tested on: methicillin-sensitive Staphylococcus aureus ATCC 29213; experiment: MIC broth microdilution, S. aureus 29213; assay type: cell-based
In short: as §4

[8] = tested on: Pseudomonas aeruginosa (PAO1); experiment: MIC broth microdilution, PAO1; assay type: cell-based
In short: as §3

[9] = tested on: MRSA-1 (clinical isolate); experiment: MIC broth microdilution, MRSA-1; assay type: cell-based, Staphylococcus aureus
Procedure: as §1, §2

[10] = tested on: methicillin-resistant Staphylococcus aureus MRSA-2 (clinical isolate); experiment: MIC broth microdilution, MRSA-2; assay type: cell-based; settings: for MRSA-2 MIC: Table 2A; for MIC: read-out: MIC MRSA-2
In short: as §3

[11] = tested on: SA-147 (clinical isolate); experiment: MIC broth microdilution, SA-147; assay type: cell-based, Staphylococcus aureus
Procedure: as §1, §2

[12] = tested on: vancomycin-resistant Enterococcus faecium (VRE strain ATCC 700221); experiment: MIC broth microdilution, VRE 700221; assay type: cell-based; settings: for MIC E. faecium VRE 700221: Table 1A; for VRE MIC: Table 2A
In short: as §3

MRSA BAA-44 = experiment: MIC broth microdilution, MRSA BAA-44; assay type: cell-based, Staphylococcus aureus
Procedure: as §1, §2

[13] = Table 1B, read-out: MIC MRSA BAA-1707
[14] = Table 2A, read-out: MRSA BAA-1707 MIC
[15] = Table 3, read-out: MIC MRSA BAA-1707

CCCCCCCCCCCCCCCCn1cc[n+](Cc2cccc(F)c2)c1C.[Br-] [Compound 18]
MIC ([1]; Table 1B): 3.13 µM | MIC ([1]; Table 3): 3.13 µM | MIC A. baumannii 1794 [2]: 25 | MIC A. bau. 1794 [2]: 25 µM | MIC S. epidermidis MRSE 35984 [3]: 1.17^a | MRSE 35984 MIC ([3]; Table 2A): 1.17^a μM | MIC MRSE 35984 ([3]; Table 4): 1.17a micromolar | MIC ([4]; Table 1B): 3.13 µM | MIC ([4]; Table 3): 3.13 µM | MIC (MRSA BAA-1707; [13]): 1.56 µM | MIC (MRSA BAA-1707; [14]): 1.56 µM | MIC (MRSA BAA-1707; [15]): 1.56 µM | MIC MRSA 1707 (MRSA BAA-1707): 1.56 µM | HC50 ([5]; Table 1A): 16.7 µM | RBC HC50 [5]: 16.7 µM | MIC ([6]; Table 1B): 3.13 µM | MIC ([6]; Table 3): 3.13 µM | MIC S. aureus 29213 ([7]; Table 1B): 4.69^a μM | MIC S. aureus 29213 ([7]; Table 3): 4.69^a μM | MIC PAO1 ([8]; Table 1A): > 100 µM | MIC PAO1 ([8]; Table 4): >100 µM | MIC ([9]; Table 1B): 3.13 µM | MIC ([9]; Table 3): 3.13 µM | MIC MRSA-2 ([10]; Table 1A): 2.35^a | MIC MRSA-2 ([10]; Table 1B): 2.35^a μM | MRSA-2 MIC [10]: 2.35^a μM | MIC MRSA-2 ([10]; Table 3): 2.35^a μM | MIC MRSA-2 ([10]; Table 4): 2.35a micromolar | MIC SA-147 ([11]; Table 1B): 2.35^a μM | MIC SA-147 ([11]; Table 3): 2.35^a μM | MIC E. faecium VRE 700221 [12]: 1.56 µM | VRE MIC [12]: 1.56 µM | MIC VRE 700221 ([12]; Table 4): 1.56 µM | MIC MRSA BAA-44 (MRSA BAA-44; Table 1B): 2.35^a μM | MIC MRSA BAA-44 (MRSA BAA-44; Table 3): 2.35^a μM

CCCCCCCCCCCCCCCCn1cc(-c2ccccc2)[n+](C)n1.[I-] [Compound 30]
MIC SA-156 ([1]; Table 1B): 2.35^s μM | MIC SA-156 ([1]; Table 3): 2.35^a μM | MIC A. baumannii 1794 [2]: 12.5 | MIC A. bau. 1794 [2]: 12.5 µM | MIC S. epidermidis MRSE 35984 [3]: 1.56 µM | MIC ([3]; Table 2A, read-out: MRSE 35984 MIC): 1.56 µM | MIC MRSE 35984 ([3]; Table 4): 1.56 µM | MIC ([4]; Table 1B): 1.56 µM | MIC ([4]; Table 3): 1.56 µM | MIC (MRSA BAA-1707; [13]): 3.13 µM | MIC (MRSA BAA-1707; [14]): 3.13 µM | MIC (MRSA BAA-1707; [15]): 3.13 µM | MIC MRSA 1707 (MRSA BAA-1707): 3.13 µM | HC50 ([5]; Table 1A): 12.6 µM | RBC HC50 [5]: 12.6 µM | MIC SA-138 ([6]; Table 1B): 2.35^a μM | MIC SA-138 ([6]; Table 3): 2.35^a μM | MIC ([7]; Table 1B): 3.13 µM | MIC ([7]; Table 3): 3.13 µM | MIC PAO1 ([8]; Table 1A): > 100 µM | MIC PAO1 ([8]; Table 4): >100 µM | MIC MRSA-1 ([9]; Table 1B): 4.69^a μM | MIC MRSA-1 ([9]; Table 3): 4.69^a μM | MIC MRSA-2 ([10]; Table 1A): 3.13 µM | MIC ([10]; Table 1B): 6.25 µM | MRSA-2 MIC [10]: 3.13 µM | MIC ([10]; Table 3): 6.25 µM | MIC MRSA-2 ([10]; Table 4): 3.13 µM | MIC ([11]; Table 1B): 1.56 µM | MIC ([11]; Table 3): 1.56 µM | MIC E. faecium VRE 700221 [12]: 3.13 µM | VRE MIC [12]: 3.13 µM | MIC VRE 700221 ([12]; Table 4): 3.13 µM | MIC MRSA BAA-44 (MRSA BAA-44; Table 1B): 4.69^a μM | MIC MRSA BAA-44 (MRSA BAA-44; Table 3): 4.69^a μM

CCCCCCCCCCCC[N+](C)(C)CC[N+](C)(C)CC[N+](C)(C)CCCCCCCCCCCC [QAC-10, reference compound]
MIC SA-156 ([1]; Table 1B): 2.35^a μM | MIC SA-156 ([1]; Table 3): 2.35^a μM | MIC against multidrug-resistant A. baumannii [2]: 6.25 µM | MIC ([2]; Table 1, read-out: MIC A. baumannii 1794): 6.25 µM | MIC A. baumannii 1794 [2]: 6.25 | MIC A. bau. 1794 [2]: 6.25 µM | MIC MRSE 35984 ([3]; Table 1): 2.35^a μM | MIC S. epidermidis MRSE 35984 [3]: 2.35^a | MRSE 35984 MIC ([3]; Table 2): 2.35^a μM | MRSE 35984 MIC ([3]; Table 2A): 2.35^a μM | MIC MRSE 35984 ([3]; Table 4): 2.35a micromolar | MIC SA-129 ([4]; Table 1B): 2.35^a μM | MIC SA-129 ([4]; Table 3): 2.35^a μM | HC50 [5]: 7.92 µM | hemolytic activity [5]: potent hemolytic activities | MIC SA-138 ([6]; Table 1B): 2.35^a μM | MIC SA-138 ([6]; Table 3): 2.35^a μM | MIC S. aureus 29213 ([7]; Table 1B): 4.69^a μM | MIC S. aureus 29213 ([7]; Table 3): 4.69^a μM | MIC against P. aeruginosa [8]: 9.38 µM | MIC PAO1 ([8]; Table 1): 9.38^a μM | MIC PAO1 ([8]; Table 1A): 9.38^a | MIC PAO1 ([8]; Table 4): 9.38a micromolar | MIC ([9]; Table 1B): 3.13 µM | MIC MRSA-1 ([9]; Table 3): 4.69^a μM | MIC ([10]; Table 1): 3.13 µM | MIC MRSA-2 ([10]; Table 1A): 3.13 µM | MIC MRSA-2 ([10]; Table 1B): 2.35^a μM | MRSA-2 MIC [10]: 2.35^a μM | MIC ([10]; Table 3): 3.13 µM | MIC MRSA-2 ([10]; Table 4): 3.13 µM | MIC ([11]; Table 1B): 3.13 µM | MIC ([11]; Table 3): 3.13 µM | MIC VRE 700221 ([12]; Table 1): 2.35^a μM | MIC E. faecium VRE 700221 [12]: 2.35^a | VRE 700221 MIC ([12]; Table 2): 2.35^a μM | MIC VRE 700221 ([12]; Table 4): 2.35a micromolar | MIC MRSA BAA-44 (MRSA BAA-44; Table 1B): 2.35^a μM | MIC MRSA BAA-44 (MRSA BAA-44; Table 3): 2.35^a μM
